In the Deep4Chem optical property database one finds photoluminescence quantum yield data, which are given here for 40 compounds.

Several values for one entry are separate records, joined by “and”; a condition that tells them apart may be missing. Identical values can stand only once.

A short description of this data set: photoluminescence quantum yield (fraction); solvent given as SMILES.
The mark [1] stands for this setting: in c1cc(-c2cccc(-n3c4ccccc4c4ccccc43)c2)cc(-n2c3ccccc3c3ccccc32)c1.
Setting [2] is: in O=P(c1ccccc1)(c1ccccc1)c1ccccc1Oc1ccccc1P(=O)(c1ccccc1)c1ccccc1.

In turn, `CCn1c(-c2ccc(-c3ccc4c(c3)C(C)(C)c3ccccc3-4)cc2)c(-c2ccc3ccccc3c2)c(-c2ccc3ccccc3c2)c1-c1ccc(-c2ccc3c(c2)C(C)(C)c2ccccc2-3)cc1` displayed a photoluminescence quantum yield (in CCOC(C)=O) of 0.99.

The compound `CC(C)c1cc(C(C)C)c(B2c3cc(N4c5ccccc5C(C)(C)c5ccccc54)ccc3N(c3ccccc3)c3ccc(N4c5ccccc5C(C)(C)c5ccccc54)cc32)c(C(C)C)c1` displayed a photoluminescence quantum yield under setting [1] of 0.95.

Compound `CCCCCCCCN1c2ccc(C#Cc3ccc(OC)cc3)cc2Sc2cc(C=O)ccc21` came in with a photoluminescence quantum yield (in C1CCOC1) of 0.54; a photoluminescence quantum yield (in CC#N) of 0.34; a photoluminescence quantum yield (in CCCCCC) of 0.59; a photoluminescence quantum yield (in CO) of 0.07; a photoluminescence quantum yield (in CS(C)=O) of 0.91; a photoluminescence quantum yield (in Cc1ccccc1) of 0.49. This compound had a photoluminescence quantum yield (in ClC(Cl)Cl) of 0.58.

Take `Cc1cccc2nc3[nH]c(=O)[nH]c(=O)c3nc12`: the photoluminescence quantum yield (in CC#N) turned out to be 0.017.

`CC(C)c1cc(C(C)C)c(-c2nnc(-c3ccc(-n4c5ccccc5c5ccccc54)cc3)o2)c(C(C)C)c1` displayed a photoluminescence quantum yield (in Cc1ccccc1) of 0.61.

In the case of `F[B-]1(F)n2cccc2C(c2ccccc2)=C2C=CC=[N+]21`, the photoluminescence quantum yield reads like this: (in Cc1ccccc1) 0.053; (in ClCCl) 0.74.

In the case of `COc1ccc(-c2nnc(-c3cc(-c4nnc(-c5ccc(OC)cc5)o4)c(-n4c5ccccc5c5ccccc54)cc3-n3c4ccccc4c4ccccc43)o2)cc1`, the photoluminescence quantum yield stood at 0.133 (in Cc1ccccc1) and 0.354 under setting [2].

Compound `CCn1c(-c2ccc(-c3ccc4ccc5cccc6ccc3c4c56)cc2)c(-c2ccc3ccccc3c2)c(-c2ccc3ccccc3c2)c1-c1ccc(-c2ccc3ccc4cccc5ccc2c3c45)cc1` gave a photoluminescence quantum yield (in CCOC(C)=O) of 0.99.

`CN(C)c1ccc(-c2nc3c(c4c2-c2ccccc2CC4)-c2ccccc2CC3)cc1` showed a photoluminescence quantum yield (in C1CCOC1) of 0.396; a photoluminescence quantum yield (in CC#N) of 0.182; a photoluminescence quantum yield (in CCCCCC) of 0.05; a photoluminescence quantum yield (in CCOC(C)=O) of 0.164; a photoluminescence quantum yield (in CO) of 0.08; a photoluminescence quantum yield (in CS(C)=O) of 0.215. Further, the photoluminescence quantum yield reads like this: (in Cc1ccccc1) 0.112; (in ClCCl) 0.269.

`CCCCC(CC)CN1C(=O)C2=C(c3ccc(-c4ccc(C5=C6C(C)=CC(C)=[N+]6[B-](F)(F)n6c(C)cc(C)c65)cc4)s3)N(CC(CC)CCCC)C(=O)C2=C1c1ccc(-c2ccc(C3=C4C(C)=CC(C)=[N+]4[B-](F)(F)n4c(C)cc(C)c43)cc2)s1` (stereo not drawn): the photoluminescence quantum yield (in Cc1ccccc1) was 0.45.

As to `CC(C)(C)c1ccc(C2=CC3=C(c4ccccc4)c4cc(-c5ccc(C(C)(C)C)cc5)c(-c5ccc(C(C)(C)C)cc5)n4[B-](F)(F)[N+]3=C2c2ccc(C(C)(C)C)cc2)cc1`, the photoluminescence quantum yield was found to be 0.33 (in C1CCCCC1); 0.28 (in C1CCOC1); 0.29 (in CC#N); 0.43 (in Cc1ccccc1); 0.3 (in ClCCl).

For `COc1nc(Nc2ccc3c4c(cccc24)C(=O)c2ccccc2-3)nc(OC)n1`, the photoluminescence quantum yield runs as follows: (in CC#N) 0.59; (in CC(C)=O) 0.66; (in CC(C)O) 0.38; (in CCCCOCCCC) 0.22; (in CCOC(C)=O) 0.58; (in CCOCC) 0.39. The same compound returned a photoluminescence quantum yield (in CO) of 0.3; a photoluminescence quantum yield (in Cc1ccccc1) of 0.56; a photoluminescence quantum yield (in Clc1ccccc1) of 0.66; a photoluminescence quantum yield (in N#Cc1ccccc1) of 0.64; a photoluminescence quantum yield (in O=C1CCCCC1) of 0.67.

`CCN(CC)c1ccc2c(-c3ccccc3C(=O)[O-])c3ccc(=[N+](CC)CC)cc-3oc2c1`: the photoluminescence quantum yield reads like this: (in CC#N) 0.4; (in CCO) 0.66; (in CN(C)C=O) 0.42; (in CO) 0.7; (in O) 0.36 and 0.31.

`CN(C)c1ccc2c(c1)C(=O)c1ccccc1-2`: the photoluminescence quantum yield (in C1CCCCC1) stood at 0.0087 and the photoluminescence quantum yield (in c1ccccc1) was determined as 0.0012.

For the compound `CCCCN(CCCC)c1ccc(C#Cc2cc(C#Cc3ccc(C#N)cc3)c(C#Cc3ccc(C#N)cc3)cc2C#Cc2ccc(N(CCCC)CCCC)cc2)cc1`, where the note is “in ClCCl”, the photoluminescence quantum yield stood at 0.26.

For the setting “in CC#N”, `O=c1oc2ccccc2cc1/C=C/c1ccc([N+](=O)[O-])cc1` displayed a photoluminescence quantum yield of 0.04.

For the compound `c1ccc(-c2nc(-c3ccccc3)nc(-c3ccc(-c4ccc5c(c4)[Si](c4ccccc4)(c4ccccc4)c4cc(-c6ccc(-c7nc(-c8ccccc8)nc(-c8ccccc8)n7)cc6)ccc4N5c4ccccc4)cc3)n2)cc1`, the photoluminescence quantum yield under setting [1] was 0.96.

Under “in ClCCl”, `F[B-]1(F)OC(/C=C/c2ccccc2)=CC(c2ccccc2)=[O+]1` registered a photoluminescence quantum yield of 0.02.

Turning to `CC(C)c1cccc(C(C)C)c1-n1c(=O)c2cc3nc(-c4ccccc4)c4cc5c(=O)n(-c6c(C(C)C)cccc6C(C)C)c(=O)c6cc7nc(-c8ccccc8)c8cc(c1=O)c2c1c3c4c(c65)c7c81`, the photoluminescence quantum yield (in ClC(Cl)Cl) amounted to 0.25.

Compound `c1ccc(-c2nc(-c3ccc(-c4ccc(-c5nc(-c6ccccc6)c(-c6ccccc6)o5)cc4)cc3)oc2-c2ccccc2)cc1` yielded a photoluminescence quantum yield (in C1COCCO1) of 0.74.

Under “in CO”, `CC1(C)C(/C=C/C2=C(Oc3ccc(CCN=C=S)cc3Cl)C(=C/C=C3/N(CCCS(=O)(=O)[O-])c4ccccc4C3(C)C)/CCC2)=[N+](CCCS(=O)(=O)[O-])c2ccccc21` yielded a photoluminescence quantum yield of 0.14.

Where the note is “in ClC(Cl)Cl”, `CCOC(=O)c1ccc(/C=C/C2=[N+]3C(=C(c4ccccc4)c4ccc(/C=C/c5ccc(C(=O)OCC)o5)n4[B-]3(F)F)C=C2)o1` showed a photoluminescence quantum yield of 0.29.

Turning to `CN(C)c1ccc2c(c1)C(C)(C)C(=O)C=C2`, where the note is “in O”, the photoluminescence quantum yield was 0.13.

The compound `CCCCCCCCC1(CCCCCCCC)c2ccccc2-c2ccc(-c3nnc(-c4cccc(-n5c6ccc(C(C)(C)C)cc6c6cc(C(C)(C)C)ccc65)c4)o3)cc21` displayed a photoluminescence quantum yield (in Cc1ccccc1) of 0.13.

As for `CC1(C)c2ccccc2N(c2ccc3c(c2)Oc2ccccc2P3(=O)c2ccccc2)c2ccccc21` (stereo not drawn), the photoluminescence quantum yield was 0.37 (in Cc1ccccc1) and 0.62 under setting [2].

Consider `CCC1=C(C)C2=C(c3cc(C4=C5C(C)=C(CC)C(C)=[N+]5[B-](F)(F)n5c(C)c(CC)c(C)c54)cc(C4=C5C(C)=C(CC)C(C)=[N+]5[B-](F)(F)n5c(C)c(CC)c(C)c54)c3)c3c(C)c(CC)c(C)n3[B-](F)(F)[N+]2=C1C`, for which the photoluminescence quantum yield (in C1CCOC1) worked out at 0.91; the photoluminescence quantum yield (in CC#N) worked out at 0.62; the photoluminescence quantum yield (in CN(C)C=O) stood at 0.73; the photoluminescence quantum yield (in Cc1ccccc1) is 0.95; the photoluminescence quantum yield (in ClC(Cl)Cl) was 0.88.

`Cc1oc(C)c2c1C=C(C=O)CC(C=O)=C2` came in with a photoluminescence quantum yield (in ClC(Cl)Cl) of 0.

Regarding `Oc1ccc2ccccc2c1-c1nc(-c2ccccc2)c2ccccn12`, the photoluminescence quantum yield (in ClCCl) is 0.136.

For the compound `CCCCCCOc1ccc(N(c2ccc(OCCCCCC)cc2)c2ccc(-c3sc(-c4ccc(N(c5ccc(OCCCCCC)cc5)c5ccc(OCCCCCC)cc5)cc4)c4nc(-c5ccc(OC)cc5)c(-c5ccc(OC)cc5)nc34)cc2)cc1`, the photoluminescence quantum yield stood at 0.0287 (in CN(C)C=O) and 0.014 (in ClC(Cl)Cl).

`C[N+]1=C(/C=C/C2=C3Oc4c(cc5c6c4CCCN6CCC5)C(c4ccccc4C(=O)O)=C3CCC2)C(C)(C)c2c1ccc1ccccc21`: the photoluminescence quantum yield was 0.2 (in CC#N), 0.29 (in CCO), 0.3 (in CO) and 0.46 (in ClC(Cl)Cl).

Take `CC1(C)c2ccccc2-n2c(-c3ccc(-n4c5ccccc5c5ccccc54)cc3)nc3cccc1c32`: the photoluminescence quantum yield (in Cc1ccccc1) is 0.99 and the photoluminescence quantum yield under setting [2] stood at 0.85.

In the case of `CC(C)[Si](C#Cc1c2nc3c(nc2c(C#C[Si](C(C)C)(C(C)C)C(C)C)c2nc4ccccc4nc12)C1c2ccccc2C3c2ccccc21)(C(C)C)C(C)C`, under “in CCCCCC”, the photoluminescence quantum yield is 0.21.

With `CCC1=C(C)C2=Cc3c4ccccc4c4n3[B-](c3ccccc3)(Oc3ccccc3-4)[N+]2=C1C` (stereo not drawn), the photoluminescence quantum yield was 0.75 (in CC#N), 0.77 (in CCCCCC), 0.64 (in Cc1ccccc1) and 0.75 (in ClCCl).

As for `COc1cccc2c1C(=O)c1ccccc1-2`, the photoluminescence quantum yield is, setting by setting: (in CC#N) 0.0073; (in CC(C)O) 0.029; (in CCCCO) 0.023; (in CCCO) 0.021; (in CCO) 0.02; (in CO) 0.011.

For the setting “in CCO”, `O=C(O)CCNc1cccc2ccccc12` returned a photoluminescence quantum yield of 0.54.

For the setting “in ClCCl”, `c1ccc2c(-c3c4ccccc4c(-c4ccc(-n5c6ccccc6c6ccccc65)cc4)c4ccccc34)cccc2c1` registered a photoluminescence quantum yield of 0.78.

Turning to `COc1cc(N(c2ccccc2)c2ccc(C=C(C#N)C#N)c(OC)c2)ccc1C=C(C#N)C#N`, the photoluminescence quantum yield is 0.035 (in C1COCCO1); 0.008 (in CC#N); 0.017 (in CC(C)=O); 0.085 (in CCOC(C)=O); 0.073 (in CN(C)C=O); 0.039 (in CO). Besides, the photoluminescence quantum yield runs as follows: (in Cc1ccccc1) 0.032; (in ClC(Cl)Cl) 0.076; (in ClCCl) 0.072.

In the case of `Fc1cccc(C2=Cc3ccc4ccccc4[n+]3[B-](F)(F)O2)c1`, under “in ClC(Cl)Cl”, the photoluminescence quantum yield is 0.47.

For `CC1(C)c2ccccc2N(c2cccc(S(=O)(=O)c3cccc(N4c5ccccc5C(C)(C)c5ccccc54)c3)c2)c2ccccc21`, the photoluminescence quantum yield worked out at 0.239 (in CCCCC(CC)n1c2ccc(-n3c4ccccc4c4ccccc43)cc2c2cc(-n3c4ccccc4c4ccccc43)ccc21) and 0.365 (in c1cc(-n2c3ccccc3c3ccccc32)cc(-n2c3ccccc3c3ccccc32)c1).

As for `Nc1cc2ccc3cccc4ccc(c1)c2c34`, the photoluminescence quantum yield runs as follows: (in CC#N) 0.14; (in CCCCOCCCC) 0.19; (in CO) 0.17.
